Results as given in ChEMBL document CHEMBL2331227, “Khayseneganins A-H, limonoids from Khaya senegalensis” (2013).
≈ marks a conversion by molar mass, not a printed value.

Legend:
Format in all cases: functional
Staphylococcus aureus [1] = test: Antimicrobial activity against methicillin-resistant Staphylococcus aureus isolate 98 by two-fold dilution method
Staphylococcus aureus [2] = test: Antimicrobial activity against methicillin-resistant Staphylococcus aureus isolate 92 by two-fold dilution method
Staphylococcus aureus [3] = test: Antimicrobial activity against Staphylococcus aureus ATCC 25923 by two-fold dilution method
Pseudomonas aeruginosa = test: Antimicrobial activity against Pseudomonas aeruginosa ATCC 27853 by two-fold dilution method

SMILES | MIC (Staphylococcus aureus [1]) [µg/mL] | MIC (Staphylococcus aureus [2]) [µg/mL] | MIC (Staphylococcus aureus [3]) [µg/mL] | MIC (Pseudomonas aeruginosa) [µg/mL]
COC(=O)[C@H](O)[C@H]1[C@]2(C)C[C@]3(OC(C)=O)[C@@H]4[C@@](OC)(O[C@]56CC(=O)O[C@@H](c7ccoc7)[C@]5(C)CC[C@H]([C@]13C)[C@@]46O)[C@H]2O (relative stereo) | > 50 | > 50 | – | –
CC(=O)O[C@H]1C[C@@H](O)C(C)(C)[C@@H]2C[C@@H](OC(C)=O)[C@]3(C)[C@H](CC[C@@]4(C)[C@@H](c5ccoc5)OC(=O)[C@H]5O[C@@]534)[C@@]12C [3-DEACETYLKHIVORIN] | 12.5 (≈ 23 µM) | 12.5 (≈ 23 µM) | 25 (≈ 45.9 µM) | 12.5 (≈ 23 µM)
C=C1[C@@H]2CC[C@@]3(C)[C@H](c4ccoc4)OC(=O)C[C@]13O[C@H]1CC(=O)OC(C)(C)[C@H]([C@@H](O)C(=O)OC)[C@]12C (relative stereo) | 50 (≈ 99.5 µM) | 25 (≈ 49.7 µM) | 50 (≈ 99.5 µM) | 25 (≈ 49.7 µM)
COC(=O)[C@H](O)[C@H]1C(C)(C)[C@H](OC(C)=O)[C@@H]2CC3=C4CC(=O)O[C@@H](c5ccoc5)[C@]4(C)CC[C@@H]3[C@@]1(C)C2=O [SWIETENOLIDE-3-ACETATE] | 25 (≈ 47.3 µM) | 25 (≈ 47.3 µM) | 25 (≈ 47.3 µM) | 25 (≈ 47.3 µM)
COC(=O)C[C@H]1C(C)(C)[C@H](O)[C@@H]2C=C3[C@H]([C@H](OC(C)=O)C[C@]4(C)[C@H]3CC(=O)O[C@H]4c3ccoc3)[C@@]1(C)C2=O [Swietmanin C] | > 50 | > 50 | > 50 | > 50
C=C1[C@H]2CC[C@]3(C)[C@H](c4ccoc4)OC(=O)C[C@@]13O[C@H]1CC(=O)OC(C)(C)[C@@H](CC(=O)OC)[C@@]12C [METHYL IVORENSATE] | > 50 | > 50 | > 50 | > 50
COC(=O)C[C@H]1C(C)(C)[C@H](OC(C)=O)[C@@H]2C=C3[C@@H]4CC(=O)O[C@@H](c5ccoc5)[C@]4(C)CC[C@@H]3[C@@]1(C)C2=O | 12.5 (≈ 24.4 µM) | 12.5 (≈ 24.4 µM) | 25 (≈ 48.8 µM) | 12.5 (≈ 24.4 µM)
CC(=O)O[C@@H]1C[C@H](O)[C@]2(C)[C@H]3CC[C@@]4(C)[C@@H](c5ccoc5)OC(=O)[C@H]5O[C@]54[C@]3(C)[C@H](OC(C)=O)C[C@H]2C1(C)C | 12.5 (≈ 23 µM) | 25 (≈ 45.9 µM) | 25 (≈ 45.9 µM) | 25 (≈ 45.9 µM)
COC(=O)C[C@H]1[C@@]2(C)C[C@]3(O)O[C@@]4(CC(=O)[C@H]2O)[C@H]2CC(=O)O[C@@H](c5ccoc5)[C@]2(C)CC[C@@H]4[C@]13C | > 50 | > 50 | > 50 | > 50
CN[C@H](CC(C)C)C(=O)N[C@H]1C(=O)N[C@@H](CC(N)=O)C(=O)N[C@H]2C(=O)N[C@H]3C(=O)N[C@H](C(=O)N[C@H](C(=O)O)c4cc(O)cc(O)c4-c4cc3ccc4O)[C@H](O)c3ccc(c(Cl)c3)Oc3cc2cc(c3O[C@@H]2O[C@H](CO)[C@@H](O)[C@H](O)[C@H]2O[C@H]2C[C@](C)(N)[C@H](O)[C@H](C)O2)Oc2ccc(cc2Cl)[C@H]1O.Cl [VANCOMYCIN HYDROCHLORIDE] | 0.78 | 0.78 | 0.78 | 25
COC(=O)[C@@H](OC(C)=O)[C@H]1C(C)(C)C(=O)[C@@H]2C=C3[C@@H]4CC(=O)O[C@@H](c5ccoc5)[C@]4(C)CC[C@@H]3[C@@]1(C)C2=O [khayalenoid E] | 25 (≈ 47.5 µM) | 25 (≈ 47.5 µM) | 25 (≈ 47.5 µM) | 25 (≈ 47.5 µM)
CC(=O)O[C@H]1C[C@@H](OC(C)=O)C(C)(C)[C@@H]2CC(=O)[C@]3(C)[C@H](CC[C@@]4(C)[C@@H](c5ccoc5)OC(=O)[C@H]5O[C@]543)[C@@]12C | 25 (≈ 46.1 µM) | 50 (≈ 92.1 µM) | 50 (≈ 92.1 µM) | 25 (≈ 46.1 µM)
COC(=O)[C@H](O)[C@@H]1[C@@]2(C)[C@H]3CC[C@]4(C)C(=CC(=O)O[C@H]4c4ccoc4)[C@]3(O)[C@H]3[C@@H](O)C(=O)[C@@]1(C)C[C@]32OC(C)=O (relative stereo) | > 50 | > 50 | > 50 | > 50
COC(=O)C[C@H]1C(C)(C)[C@H](OC(C)=O)[C@@H]2C=C3[C@H]([C@H](OC(C)=O)C[C@]4(C)[C@H]3CC(=O)O[C@H]4c3ccoc3)[C@@]1(C)C2=O [SWIETMANIN B] | 12.5 (≈ 21.9 µM) | 50 (≈ 87.6 µM) | 25 (≈ 43.8 µM) | 12.5 (≈ 21.9 µM)
COC(=O)[C@H](O)[C@H]1C(C)(C)C(=O)[C@@H]2C[C@]3(O)[C@@H]4CC(=O)O[C@@H](c5ccoc5)[C@]4(C)CC[C@@H]3[C@@]1(C)C2=O [KHAYANONE] | 25 (≈ 49.7 µM) | 25 (≈ 49.7 µM) | 25 (≈ 49.7 µM) | > 50
CC1(C)C(=O)[C@@H]2C[C@@]34O[C@]2(O)[C@]2(COC(=O)C[C@@H]12)[C@H]3CC[C@]1(C)[C@H]4CC(=O)O[C@H]1c1ccoc1 [SENEGANOLIDE] | > 50 | > 50 | > 50 | > 50
COC(=O)C[C@H]1C(C)(C)[C@H](OC(C)=O)[C@]2(O)C=C3[C@H]([C@H](OC(C)=O)C[C@]4(C)[C@H]3CC(=O)O[C@H]4c3ccoc3)[C@@]1(C)C2=O | 25 (≈ 42.6 µM) | 25 (≈ 42.6 µM) | 25 (≈ 42.6 µM) | 25 (≈ 42.6 µM)
CC(=O)O[C@H]1C[C@@H](O)C(C)(C)[C@@H]2C[C@@H](O)[C@]3(C)[C@H](CC[C@@]4(C)[C@@H](c5ccoc5)OC(=O)[C@H]5O[C@@]534)[C@@]12C | > 50 | > 50 | > 50 | > 50
